Results as given in paper PMC7708037, “Targeting OGG1 arrests cancer cell proliferation by inducing replication stress” (Nucleic Acids Research, 2020).

System: CD3+ T-cells
Assay: CD3 flow cytometry assay (T-cell survival)
Assay type: cell-based
Design: Survival of CD3+ T-cells (flow cytometry): dose or concentration left out as unconfirmed
Method: The experiment was performed on blood cells from 4 different healthy individuals, with three replicates each. Human peripheral blood mononuclear cells were isolated from fresh buffy coats obtained from healthy donors via the Karolinska Hospital, Stockholm, Sweden. For separation, Ficoll-Paque PLUS density medium (17144003, GE Healthcare) and SepMate separation tubes (85450, StemCell) were used, according to manufacturer's instructions. Briefly, buffy coat diluted 1:1 with PBS and layered on 15 ml of Ficoll-Paque PLUS in the SepMate tubes was spun down for 10 min at […]. The upper layer of the tube content was then poured into new falcon tubes and washed twice with PBS.
Cells were seeded out in round bottom 96-well plates (83.3925.500, Sarstedt) in RPMI Medium 1640 containing GlutaMAX™ (61870-010, ThermoFisher) supplemented with 10% human AB+ male heat inactivated clotted whole blood serum (H5667, Sigma-Aldrich) and 100 U/ml penicillin/streptomycin (15140122, Gibco). […] Only viable cells were counted, using a TC20™ automated cell counter (Bio-Rad) and Trypan blue (1450021, Bio-Rad). […]
10 000 events from an FSC-SSC gate set on the typical living lymphocyte population were collected and the data was compensated and analyzed using FlowJo 10.5.3. […] The number of CD3 positive, viable events was quantified and then divided by the number of Precision Count Beads™ collected per tube. […]

SMILES: O=C(Nc1ccc(I)cc1)N1CCC(n2c(=O)[nH]c3c(Br)cccc32)CC1 [TH5487]
- Survival of CD3+ T-cells (flow cytometry) (Dynabeads-activated, 6 days): well tolerated
- Tolerance by primary T-cells (the same dose (10 μM), healthy donors): well tolerated
